Measured values as given in ChEMBL document CHEMBL3421558, “Structure activity relationship of substituted 1,5-naphthyridine analogs of oxabicyclooctane-linked novel bacterial topoisomerase inhibitors as broad-spectrum antibacterial agents (Part-4)” (Bioorg Med Chem Lett, 2015).
Converted amounts (≈) assume the structure as drawn.

The compounds below were run on Escherichia coli (assay: Antimicrobial activity against Escherichia coli ATCC 25922 by micro broth dilution or agar based method). Conditions: Escherichia coli, ATCC 25922; read-out: MIC.
Assay type: functional

Row | Compound | MIC [µg/mL]
1 | COc1nc2c(CCC34CCC(NCc5ccc6c(n5)NC(=O)CO6)(CC3)CO4)ccnc2cc1F | 4 (≈ 8.1 µM)
2 | COc1ccc2ncc(C#N)c(CCC34CCC(NCc5ccc6c(n5)NC(=O)CO6)(CC3)CO4)c2n1 | 2 (≈ 4 µM)
3 | Cc1cc(C#N)nc2c(CCC34CCC(NCc5ccc6c(n5)NC(=O)CO6)(CC3)CO4)ccnc12 | 16 (≈ 33 µM)
4 | CN(C)c1cnc2c(CCC34CCC(NCc5ccc6c(n5)NC(=O)CO6)(CC3)CO4)c(F)cnc2c1 | 16 (≈ 31.6 µM)
5 | N#Cc1ccc2ncc(C#N)c(CCC34CCC(NCc5ccc6c(n5)NC(=O)CO6)(CC3)CO4)c2n1 | 8 (≈ 16.1 µM)
6 | O=C1COc2ccc(CNC34CCC(CCc5c(F)cnc6cc(C(F)(F)F)cnc56)(CC3)OC4)nc2N1 | 16 (≈ 30.1 µM)

These compounds were tested on Streptococcus pneumoniae (assay: Antimicrobial activity against Streptococcus pneumoniae IID553 by micro broth dilution or agar based method). Conditions: Streptococcus pneumoniae, IID553; read-out: MIC.
Assay type: functional

Row | Compound | MIC [µg/mL]
7 | COc1nc2c(CCC34CCC(NCc5ccc6c(n5)NC(=O)CO6)(CC3)CO4)ccnc2cc1F | 2 (≈ 4.05 µM)
8 | COc1ccc2ncc(C#N)c(CCC34CCC(NCc5ccc6c(n5)NC(=O)CO6)(CC3)CO4)c2n1 | 0.125 (≈ 0.25 µM)
9 | Cc1cc(C#N)nc2c(CCC34CCC(NCc5ccc6c(n5)NC(=O)CO6)(CC3)CO4)ccnc12 | 8 (≈ 16.5 µM)
10 | CN(C)c1cnc2c(CCC34CCC(NCc5ccc6c(n5)NC(=O)CO6)(CC3)CO4)c(F)cnc2c1 | 16 (≈ 31.6 µM)
11 | N#Cc1ccc2ncc(C#N)c(CCC34CCC(NCc5ccc6c(n5)NC(=O)CO6)(CC3)CO4)c2n1 | 1 (≈ 2.02 µM)
12 | O=C1COc2ccc(CNC34CCC(CCc5c(F)cnc6cc(C(F)(F)F)cnc56)(CC3)OC4)nc2N1 | 16 (≈ 30.1 µM)

What follows are compounds tested on Staphylococcus aureus (assay: Antimicrobial activity against methicillin-resistant Staphylococcus aureus OIT971 by micro broth dilution or agar based method). Conditions: not given.
Assay type: functional

Row | Compound | MIC [µg/mL]
13 | COc1nc2c(CCC34CCC(NCc5ccc6c(n5)NC(=O)CO6)(CC3)CO4)ccnc2cc1F | 0.063 (≈ 0.128 µM)
14 | COc1ccc2ncc(C#N)c(CCC34CCC(NCc5ccc6c(n5)NC(=O)CO6)(CC3)CO4)c2n1 | 0.008 (≈ 0.016 µM)
15 | Cc1cc(C#N)nc2c(CCC34CCC(NCc5ccc6c(n5)NC(=O)CO6)(CC3)CO4)ccnc12 | 0.5 (≈ 1.03 µM)
16 | CN(C)c1cnc2c(CCC34CCC(NCc5ccc6c(n5)NC(=O)CO6)(CC3)CO4)c(F)cnc2c1 | 16 (≈ 31.6 µM)
17 | N#Cc1ccc2ncc(C#N)c(CCC34CCC(NCc5ccc6c(n5)NC(=O)CO6)(CC3)CO4)c2n1 | 0.125 (≈ 0.252 µM)
18 | O=C1COc2ccc(CNC34CCC(CCc5c(F)cnc6cc(C(F)(F)F)cnc56)(CC3)OC4)nc2N1 | 16 (≈ 30.1 µM)

The compounds below were run on Acinetobacter baumannii (assay: Antimicrobial activity against Acinetobacter baumannii IID876 by micro broth dilution or agar based method). Conditions: Acinetobacter baumannii, IID876; read-out: MIC.
Assay type: functional

Row | Compound | MIC [µg/mL]
19 | COc1nc2c(CCC34CCC(NCc5ccc6c(n5)NC(=O)CO6)(CC3)CO4)ccnc2cc1F | 2 (≈ 4.05 µM)
20 | COc1ccc2ncc(C#N)c(CCC34CCC(NCc5ccc6c(n5)NC(=O)CO6)(CC3)CO4)c2n1 | 1 (≈ 2 µM)
21 | Cc1cc(C#N)nc2c(CCC34CCC(NCc5ccc6c(n5)NC(=O)CO6)(CC3)CO4)ccnc12 | 4 (≈ 8.25 µM)
22 | CN(C)c1cnc2c(CCC34CCC(NCc5ccc6c(n5)NC(=O)CO6)(CC3)CO4)c(F)cnc2c1 | 16 (≈ 31.6 µM)
23 | N#Cc1ccc2ncc(C#N)c(CCC34CCC(NCc5ccc6c(n5)NC(=O)CO6)(CC3)CO4)c2n1 | 2 (≈ 4.04 µM)
24 | O=C1COc2ccc(CNC34CCC(CCc5c(F)cnc6cc(C(F)(F)F)cnc56)(CC3)OC4)nc2N1 | 16 (≈ 30.1 µM)

The compounds below were run on Pseudomonas aeruginosa (assay: Antimicrobial activity against Pseudomonas aeruginosa PAO1 by micro broth dilution or agar based method). Conditions: Pseudomonas aeruginosa, PAO1; read-out: MIC.
Assay type: functional

Row | Compound | MIC [µg/mL]
25 | COc1nc2c(CCC34CCC(NCc5ccc6c(n5)NC(=O)CO6)(CC3)CO4)ccnc2cc1F | 16 (≈ 32.4 µM)
26 | COc1ccc2ncc(C#N)c(CCC34CCC(NCc5ccc6c(n5)NC(=O)CO6)(CC3)CO4)c2n1 | 4 (≈ 7.99 µM)
27 | Cc1cc(C#N)nc2c(CCC34CCC(NCc5ccc6c(n5)NC(=O)CO6)(CC3)CO4)ccnc12 | 64 (≈ 132 µM)
28 | CN(C)c1cnc2c(CCC34CCC(NCc5ccc6c(n5)NC(=O)CO6)(CC3)CO4)c(F)cnc2c1 | 16 (≈ 31.6 µM)
29 | N#Cc1ccc2ncc(C#N)c(CCC34CCC(NCc5ccc6c(n5)NC(=O)CO6)(CC3)CO4)c2n1 | 16 (≈ 32.3 µM)
30 | O=C1COc2ccc(CNC34CCC(CCc5c(F)cnc6cc(C(F)(F)F)cnc56)(CC3)OC4)nc2N1 | 16 (≈ 30.1 µM)

Each compound was assayed against Voltage-gated inwardly rectifying potassium channel KCNH2 (Homo sapiens, UniProt Q12809) (assay: Inhibition of MK499 binding to human ERG). Conditions: not given.
Voltage-gated inwardly rectifying potassium channel KCNH2, sequence (Q12809 whole entry): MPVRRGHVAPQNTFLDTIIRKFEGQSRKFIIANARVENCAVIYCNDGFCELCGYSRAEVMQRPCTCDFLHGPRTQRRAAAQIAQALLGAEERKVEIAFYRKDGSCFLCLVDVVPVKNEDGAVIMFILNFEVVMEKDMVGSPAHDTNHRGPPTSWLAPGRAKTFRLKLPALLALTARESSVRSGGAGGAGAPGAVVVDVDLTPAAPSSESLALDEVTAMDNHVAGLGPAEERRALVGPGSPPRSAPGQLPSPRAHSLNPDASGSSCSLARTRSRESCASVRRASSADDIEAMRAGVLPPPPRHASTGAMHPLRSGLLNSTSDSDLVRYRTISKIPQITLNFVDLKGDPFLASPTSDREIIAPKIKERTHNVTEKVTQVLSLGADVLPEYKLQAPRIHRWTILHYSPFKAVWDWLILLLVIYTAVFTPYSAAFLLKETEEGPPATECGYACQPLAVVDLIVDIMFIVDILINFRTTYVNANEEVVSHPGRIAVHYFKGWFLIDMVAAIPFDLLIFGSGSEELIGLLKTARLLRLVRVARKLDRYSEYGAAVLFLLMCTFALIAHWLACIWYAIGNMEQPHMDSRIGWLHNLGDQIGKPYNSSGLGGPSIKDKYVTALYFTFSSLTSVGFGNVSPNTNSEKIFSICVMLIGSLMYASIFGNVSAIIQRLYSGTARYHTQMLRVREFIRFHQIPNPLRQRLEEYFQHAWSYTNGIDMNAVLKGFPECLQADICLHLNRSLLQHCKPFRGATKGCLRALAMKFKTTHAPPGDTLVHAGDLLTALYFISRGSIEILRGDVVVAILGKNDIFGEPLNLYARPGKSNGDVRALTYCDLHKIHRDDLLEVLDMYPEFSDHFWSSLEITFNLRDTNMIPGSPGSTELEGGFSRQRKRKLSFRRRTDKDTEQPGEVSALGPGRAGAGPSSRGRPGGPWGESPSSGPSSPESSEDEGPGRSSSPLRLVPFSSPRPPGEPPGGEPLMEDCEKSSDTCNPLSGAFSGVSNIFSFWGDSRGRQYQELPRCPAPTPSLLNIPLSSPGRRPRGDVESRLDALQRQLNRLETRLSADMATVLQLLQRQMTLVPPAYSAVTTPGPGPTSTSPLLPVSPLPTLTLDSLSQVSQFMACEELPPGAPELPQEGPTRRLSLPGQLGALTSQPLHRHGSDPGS

Row | Compound | IC50 [µM]
31 | CN(C)c1cnc2c(CCC34CCC(NCc5ccc6c(n5)NC(=O)CO6)(CC3)CO4)c(F)cnc2c1 | 18.4

Each compound was assayed on Staphylococcus aureus (assay: Potency index, ratio of MIC for quinolone-resistant Staphylococcus aureus MS5935 to MIC for quinolone-[…]). Conditions: not given.
Assay type: functional

Row | Compound | Ratio
32 | C[C@H]1COc2c(N3CCN(C)CC3)c(F)cc3c(=O)c(C(=O)O)cn1c23.C[C@H]1COc2c(N3CCN(C)CC3)c(F)cc3c(=O)c(C(=O)O)cn1c23.O [LEVOFLOXACIN] | >64
33 | CN(C)c1cnc2c(CCC34CCC(NCc5ccc6c(n5)NC(=O)CO6)(CC3)CO4)c(F)cnc2c1 | <4

The compounds below were run on Staphylococcus aureus (assay: Antimicrobial activity against quinolone-resistant Staphylococcus aureus MS5935 by micro broth dilution or agar based method). Conditions: not given.
Assay type: functional

Row | Compound | MIC [µg/mL]
34 | C[C@H]1COc2c(N3CCN(C)CC3)c(F)cc3c(=O)c(C(=O)O)cn1c23.C[C@H]1COc2c(N3CCN(C)CC3)c(F)cc3c(=O)c(C(=O)O)cn1c23.O [LEVOFLOXACIN] | > 16

The compounds below were run on Staphylococcus aureus (assay: Antimicrobial activity against Staphylococcus aureus Smith by micro broth dilution or agar based method). Conditions: Staphylococcus aureus, Smith; read-out: MIC.
Assay type: functional

Row | Compound | MIC [µg/mL]
35 | COc1nc2c(CCC34CCC(NCc5ccc6c(n5)NC(=O)CO6)(CC3)CO4)ccnc2cc1F | 0.125 (≈ 0.253 µM)
36 | COc1ccc2ncc(C#N)c(CCC34CCC(NCc5ccc6c(n5)NC(=O)CO6)(CC3)CO4)c2n1 | 0.016 (≈ 0.032 µM)
37 | Cc1cc(C#N)nc2c(CCC34CCC(NCc5ccc6c(n5)NC(=O)CO6)(CC3)CO4)ccnc12 | 1 (≈ 2.06 µM)
38 | CN(C)c1cnc2c(CCC34CCC(NCc5ccc6c(n5)NC(=O)CO6)(CC3)CO4)c(F)cnc2c1 | 16 (≈ 31.6 µM)
39 | N#Cc1ccc2ncc(C#N)c(CCC34CCC(NCc5ccc6c(n5)NC(=O)CO6)(CC3)CO4)c2n1 | 0.25 (≈ 0.504 µM)
40 | O=C1COc2ccc(CNC34CCC(CCc5c(F)cnc6cc(C(F)(F)F)cnc56)(CC3)OC4)nc2N1 | 16 (≈ 30.1 µM)

The compounds below were run on Enterococcus faecium (assay: Antimicrobial activity against VanA expressing vancomycin-resistant Enterococcus faecium by micro broth dilution or agar based method). Conditions: Enterococcus faecium; read-out: MIC.
Assay type: functional

Row | Compound | MIC [µg/mL]
41 | COc1nc2c(CCC34CCC(NCc5ccc6c(n5)NC(=O)CO6)(CC3)CO4)ccnc2cc1F | 4 (≈ 8.1 µM)
42 | COc1ccc2ncc(C#N)c(CCC34CCC(NCc5ccc6c(n5)NC(=O)CO6)(CC3)CO4)c2n1 | 0.5 (≈ 0.999 µM)
43 | Cc1cc(C#N)nc2c(CCC34CCC(NCc5ccc6c(n5)NC(=O)CO6)(CC3)CO4)ccnc12 | 8 (≈ 16.5 µM)
44 | CN(C)c1cnc2c(CCC34CCC(NCc5ccc6c(n5)NC(=O)CO6)(CC3)CO4)c(F)cnc2c1 | 16 (≈ 31.6 µM)
45 | N#Cc1ccc2ncc(C#N)c(CCC34CCC(NCc5ccc6c(n5)NC(=O)CO6)(CC3)CO4)c2n1 | 4 (≈ 8.07 µM)
46 | O=C1COc2ccc(CNC34CCC(CCc5c(F)cnc6cc(C(F)(F)F)cnc56)(CC3)OC4)nc2N1 | 16 (≈ 30.1 µM)

Each compound was assayed on Staphylococcus aureus (assay: Antimicrobial activity against quinolone-sensitive Staphylococcus aureus MS5935 by micro broth dilution or agar based method). Conditions: not given.

Row | Compound | MIC [µg/mL]
47 | C[C@H]1COc2c(N3CCN(C)CC3)c(F)cc3c(=O)c(C(=O)O)cn1c23.C[C@H]1COc2c(N3CCN(C)CC3)c(F)cc3c(=O)c(C(=O)O)cn1c23.O [LEVOFLOXACIN] | 0.25
